Reference: patent publication EP1200406B1, “CYCLIC AMIDES AND IMIDES HAVING SELECTIVE ANTAGONIST ACTIVITY AT ALPHA-1D ADRENERGIC RECEPTOR” (RECORDATI INDUSTRIA CHIMICA E FARMACEUTICA S.p.a., priority 1999, dated 2001)
pKi: −log10 of the molar value.

How the values were obtained:
[1] = molecular target: T1, human recombinant α1b adrenoceptor (Homo sapiens, UniProt P35368); assay: Radioligand binding ([3H]prazosin) on membranes of CHO cells expressing cloned α1b adrenoceptor; conditions: human cloned receptor, CHO cell membranes, 0.2 nM [3H]prazosin; read-out: Affinity (Ki) α1b
T1 construct: expressed in transfected cells; host or cells: CHO cells (membranes)
T1 sequence (P35368 1-520): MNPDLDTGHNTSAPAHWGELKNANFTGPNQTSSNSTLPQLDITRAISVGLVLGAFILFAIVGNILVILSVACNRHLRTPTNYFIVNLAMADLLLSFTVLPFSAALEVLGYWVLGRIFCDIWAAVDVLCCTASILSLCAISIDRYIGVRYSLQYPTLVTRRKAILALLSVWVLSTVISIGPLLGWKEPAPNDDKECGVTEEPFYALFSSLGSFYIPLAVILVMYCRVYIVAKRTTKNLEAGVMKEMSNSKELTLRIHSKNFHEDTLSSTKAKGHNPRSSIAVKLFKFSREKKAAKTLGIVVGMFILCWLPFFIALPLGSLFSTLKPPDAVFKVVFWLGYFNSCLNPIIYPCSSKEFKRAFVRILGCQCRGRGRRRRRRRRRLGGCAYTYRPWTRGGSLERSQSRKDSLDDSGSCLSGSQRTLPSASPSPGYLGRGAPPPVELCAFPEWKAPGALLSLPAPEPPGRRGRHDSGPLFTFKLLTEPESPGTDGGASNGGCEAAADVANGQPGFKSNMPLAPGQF
Description: (§1) The determination of affinity for cloned subtypes of human α1 adrenergic receptors was performed in membranes from CHO cells (chinese hamster ovary cells) transfected by electroporation with DNA expressing the genes encoding each α1-adrenoceptor subtype, namely α1a, α1b and α1d.. Cloning and stable expression of the human α1-adrenoceptor gene were performed as previously described (Testa et al., Pharmacol. Comm. 6, 79-86 (1995)). CHO cell membranes were incubated in […] Tris pH 7.4 with 0.2 nM [^3H]prazosin, in a final volume of 1.02 ml for 30 minutes at 25°C, in the absence or presence of competing drugs (1 pM-10 µM). Non-specific binding was determined in the presence of 10 µM phentolamine. Incubation was stopped by addition of ice-cold Tris buffer and rapid filtration through 0.2% polyethyleneimine pretreated Schleicher & Schuell GF52 filters. Genomic clone G-21 coding for the human 5-HT1A-serotoninergic receptor was stably transfected in a human cell line (HeLa) (Fargin et al., J. Biol. Chem. 284, 14848-14852 (1989)). The HeLa cells were grown as monolayers in Dulbecco's modified Eagle's medium (DMEM), supplemented with 10% foetal calf serum and gentamicin (100 µg/ml), 5% CO2, at 37°C. The cells were detached from the growth flask at 95% confluence by a cell scraper and were lysed in ice-cold 5 mM Tris and 5-mM EDTA buffer (pH 7.4). The homogenates were centrifuged at 40000 x g x 20 minutes and the membranes were re-suspended in a small volume of ice-cold 5 mM Tris and 5-mM EDTA buffer (pH 7.4) and immediately frozen and stored at -70°C until use. On the experiment day, the cell membranes were re-suspended in a buffer containing 50 mM Tris (pH 7.4), 2.5 mM MgCl2, 10 µM pargyline (Fargin et al., Nature 335, 358-360 (1988)). […] The incubation was stopped by addition of ice-cold Tris buffer and rapid filtration through 0.2%-polyethyleneimine-pretreated Schleicher & Schuell filters. The inhibition of specific binding of the radioligands by the drugs was analysed to estimate the IC50 value by using the non-linear curve-fitting programme Allfit (De Lean et al., Am. J. Physiol. 235, E97-E102 (1978)). The IC50 value was converted to an affinity constant (Ki) by the equation of Cheng & Prusoff (Biochem. Pharmacol. 22, 3099-3108 (1973)). Data were expressed as mean of Ki.

[2] = molecular target: T2, human 5-HT1A-serotoninergic receptor (Homo sapiens, UniProt P08908); assay: Radioligand binding ([3H]8-OH-DPAT) on membranes of HeLa cells expressing cloned 5-HT1A receptor; conditions: human cloned receptor, HeLa cell membranes, 1.2 nM [3H]8-OH-DPAT; read-out: Affinity (Ki) 5-HT1A
T2 construct: expressed in transfected cells; host or cells: HeLa cells (membranes)
T2 sequence (P08908 1-422): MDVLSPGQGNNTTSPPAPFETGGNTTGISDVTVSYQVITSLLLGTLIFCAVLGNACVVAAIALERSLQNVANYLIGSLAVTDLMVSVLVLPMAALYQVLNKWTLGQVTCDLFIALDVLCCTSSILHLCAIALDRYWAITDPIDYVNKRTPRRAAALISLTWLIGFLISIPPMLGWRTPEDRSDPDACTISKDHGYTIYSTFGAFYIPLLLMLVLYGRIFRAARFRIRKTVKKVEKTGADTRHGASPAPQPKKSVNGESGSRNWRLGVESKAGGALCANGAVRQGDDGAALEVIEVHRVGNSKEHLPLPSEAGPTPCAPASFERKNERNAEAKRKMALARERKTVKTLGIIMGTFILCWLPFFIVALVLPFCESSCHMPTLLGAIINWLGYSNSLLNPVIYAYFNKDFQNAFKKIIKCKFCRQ
Description: as §1

Guinea pig spleen α1B = molecular target: T3, Guinea pig spleen α1B (Cavia porcellus, UniProt H0WBQ9); conditions: footnote a: Eltze M., Eur. J. Pharmacol. 260, 211-220 (1994); cited from earlier work
T3 construct: from tissue; host or cells: guinea pig spleen, longitudinal strips
T3 sequence (H0WBQ9 1-520): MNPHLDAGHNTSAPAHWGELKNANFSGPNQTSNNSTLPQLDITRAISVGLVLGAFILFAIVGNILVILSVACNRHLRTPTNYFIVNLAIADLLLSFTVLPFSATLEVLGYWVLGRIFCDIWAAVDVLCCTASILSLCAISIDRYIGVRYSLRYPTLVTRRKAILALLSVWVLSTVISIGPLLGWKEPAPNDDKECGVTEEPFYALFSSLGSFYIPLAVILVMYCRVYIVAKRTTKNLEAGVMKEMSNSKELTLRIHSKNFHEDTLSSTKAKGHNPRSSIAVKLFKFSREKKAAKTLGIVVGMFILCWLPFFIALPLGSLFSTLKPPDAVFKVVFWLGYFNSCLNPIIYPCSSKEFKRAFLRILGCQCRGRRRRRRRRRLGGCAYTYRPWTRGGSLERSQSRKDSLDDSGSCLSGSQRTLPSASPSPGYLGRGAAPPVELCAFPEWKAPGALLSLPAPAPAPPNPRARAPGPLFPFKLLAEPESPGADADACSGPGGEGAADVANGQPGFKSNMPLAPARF

## COc1ccccc1N1CCN(CCN2C(=O)CC3(CCCC3)CC2=O)CC1 [BMY-7378, reference compound]
[1]
  pKi: 7.16
[2]
  pKi: 9.03
Guinea pig spleen α1B
  Functional affinity pKB, Guinea pig spleen α1B: 6.55^a
